Results reported in PMC6437697 (Journal of Medicinal Chemistry, 2019).

How the values were obtained:
Test in all cases: KINOMEscan
Type in all cases: binding
Details in all cases: read-out: % control activity remaining
TRKC = target: T1, TRKC (Homo sapiens, UniProt Q16288)
T1 construct: purchased Eurofins DiscoverX KINOMEscan

[1] = target: T2, JAK2(JH1domain-catalytic) (Homo sapiens, UniProt O60674)
T2 construct: JAK2(JH1domain-catalytic); purchased Eurofins DiscoverX KINOMEscan

STK36 = target: T3, STK36 (Homo sapiens, UniProt Q9NRP7)
T3 construct: purchased Eurofins DiscoverX KINOMEscan
T3 sequence (Q9NRP7 1-1315): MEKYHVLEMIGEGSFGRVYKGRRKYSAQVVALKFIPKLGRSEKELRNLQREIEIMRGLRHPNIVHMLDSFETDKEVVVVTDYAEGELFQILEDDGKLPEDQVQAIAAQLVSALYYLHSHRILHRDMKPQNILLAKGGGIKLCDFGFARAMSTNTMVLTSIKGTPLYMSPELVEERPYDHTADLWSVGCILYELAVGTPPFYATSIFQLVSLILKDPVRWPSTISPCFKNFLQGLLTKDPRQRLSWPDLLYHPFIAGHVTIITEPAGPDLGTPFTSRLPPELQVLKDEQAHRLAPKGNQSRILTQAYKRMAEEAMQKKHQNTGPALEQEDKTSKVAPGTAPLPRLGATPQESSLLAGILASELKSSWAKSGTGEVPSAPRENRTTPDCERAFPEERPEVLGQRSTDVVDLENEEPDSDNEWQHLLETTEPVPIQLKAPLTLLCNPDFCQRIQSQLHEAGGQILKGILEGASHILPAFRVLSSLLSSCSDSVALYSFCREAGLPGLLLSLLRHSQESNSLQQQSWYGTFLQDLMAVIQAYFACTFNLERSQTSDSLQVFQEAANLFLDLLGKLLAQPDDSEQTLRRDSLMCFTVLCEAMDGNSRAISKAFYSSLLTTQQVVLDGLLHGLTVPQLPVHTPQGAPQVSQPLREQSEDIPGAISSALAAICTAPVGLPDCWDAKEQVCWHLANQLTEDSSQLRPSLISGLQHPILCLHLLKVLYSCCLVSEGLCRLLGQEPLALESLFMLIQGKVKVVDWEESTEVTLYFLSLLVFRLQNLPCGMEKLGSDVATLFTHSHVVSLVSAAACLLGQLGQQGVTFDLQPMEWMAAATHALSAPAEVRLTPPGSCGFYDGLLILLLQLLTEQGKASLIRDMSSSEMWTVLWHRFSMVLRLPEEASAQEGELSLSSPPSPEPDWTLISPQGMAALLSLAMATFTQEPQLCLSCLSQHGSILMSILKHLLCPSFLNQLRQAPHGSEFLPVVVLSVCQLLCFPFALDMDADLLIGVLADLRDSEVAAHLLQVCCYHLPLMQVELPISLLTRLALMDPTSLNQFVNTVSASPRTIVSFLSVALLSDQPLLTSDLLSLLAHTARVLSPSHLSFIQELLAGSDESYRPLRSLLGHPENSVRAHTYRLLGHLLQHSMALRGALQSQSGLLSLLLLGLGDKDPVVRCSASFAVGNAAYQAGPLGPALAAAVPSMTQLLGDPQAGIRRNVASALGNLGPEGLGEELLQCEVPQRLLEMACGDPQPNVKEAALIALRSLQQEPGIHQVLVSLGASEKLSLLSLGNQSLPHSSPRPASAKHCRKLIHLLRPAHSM

AAK1 = target: T4, AAK1 (Homo sapiens, UniProt Q2M2I8)
T4 construct: purchased Eurofins DiscoverX KINOMEscan

ABL2 = target: T5, ABL2 (Homo sapiens, UniProt P42684)
T5 construct: purchased Eurofins DiscoverX KINOMEscan
T5 sequence (P42684 whole entry): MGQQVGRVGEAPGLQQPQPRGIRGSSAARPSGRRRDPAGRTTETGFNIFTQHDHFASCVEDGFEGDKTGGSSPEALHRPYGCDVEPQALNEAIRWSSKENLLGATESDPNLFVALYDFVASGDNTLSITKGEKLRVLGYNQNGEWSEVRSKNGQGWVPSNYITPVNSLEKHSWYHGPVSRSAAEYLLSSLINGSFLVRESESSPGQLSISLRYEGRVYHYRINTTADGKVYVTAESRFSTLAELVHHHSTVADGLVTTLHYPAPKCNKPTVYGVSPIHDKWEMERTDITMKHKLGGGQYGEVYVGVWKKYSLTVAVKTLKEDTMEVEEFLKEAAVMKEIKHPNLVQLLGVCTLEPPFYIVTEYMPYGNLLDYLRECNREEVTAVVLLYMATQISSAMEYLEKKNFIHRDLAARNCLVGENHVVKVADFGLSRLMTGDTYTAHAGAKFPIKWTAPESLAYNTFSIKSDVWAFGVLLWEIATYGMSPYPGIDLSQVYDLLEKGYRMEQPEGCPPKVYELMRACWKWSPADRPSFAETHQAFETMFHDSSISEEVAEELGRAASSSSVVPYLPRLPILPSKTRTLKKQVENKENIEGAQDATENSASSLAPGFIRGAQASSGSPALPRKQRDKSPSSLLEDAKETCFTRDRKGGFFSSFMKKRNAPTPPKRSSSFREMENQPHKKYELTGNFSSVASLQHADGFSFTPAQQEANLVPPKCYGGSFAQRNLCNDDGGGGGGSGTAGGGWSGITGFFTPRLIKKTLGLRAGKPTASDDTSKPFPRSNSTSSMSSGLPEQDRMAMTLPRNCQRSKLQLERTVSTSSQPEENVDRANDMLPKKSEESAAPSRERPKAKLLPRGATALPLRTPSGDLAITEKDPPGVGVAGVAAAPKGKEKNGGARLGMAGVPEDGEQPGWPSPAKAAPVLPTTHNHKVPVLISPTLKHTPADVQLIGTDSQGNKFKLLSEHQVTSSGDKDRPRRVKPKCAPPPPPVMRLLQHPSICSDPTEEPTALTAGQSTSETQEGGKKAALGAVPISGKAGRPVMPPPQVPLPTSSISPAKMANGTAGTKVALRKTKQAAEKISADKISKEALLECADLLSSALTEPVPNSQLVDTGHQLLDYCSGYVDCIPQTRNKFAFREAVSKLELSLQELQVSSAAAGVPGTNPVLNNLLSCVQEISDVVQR

EPHA1 = target: T6, EPHA1 (Homo sapiens, UniProt P21709)
T6 construct: purchased Eurofins DiscoverX KINOMEscan
T6 sequence (P21709 26-976): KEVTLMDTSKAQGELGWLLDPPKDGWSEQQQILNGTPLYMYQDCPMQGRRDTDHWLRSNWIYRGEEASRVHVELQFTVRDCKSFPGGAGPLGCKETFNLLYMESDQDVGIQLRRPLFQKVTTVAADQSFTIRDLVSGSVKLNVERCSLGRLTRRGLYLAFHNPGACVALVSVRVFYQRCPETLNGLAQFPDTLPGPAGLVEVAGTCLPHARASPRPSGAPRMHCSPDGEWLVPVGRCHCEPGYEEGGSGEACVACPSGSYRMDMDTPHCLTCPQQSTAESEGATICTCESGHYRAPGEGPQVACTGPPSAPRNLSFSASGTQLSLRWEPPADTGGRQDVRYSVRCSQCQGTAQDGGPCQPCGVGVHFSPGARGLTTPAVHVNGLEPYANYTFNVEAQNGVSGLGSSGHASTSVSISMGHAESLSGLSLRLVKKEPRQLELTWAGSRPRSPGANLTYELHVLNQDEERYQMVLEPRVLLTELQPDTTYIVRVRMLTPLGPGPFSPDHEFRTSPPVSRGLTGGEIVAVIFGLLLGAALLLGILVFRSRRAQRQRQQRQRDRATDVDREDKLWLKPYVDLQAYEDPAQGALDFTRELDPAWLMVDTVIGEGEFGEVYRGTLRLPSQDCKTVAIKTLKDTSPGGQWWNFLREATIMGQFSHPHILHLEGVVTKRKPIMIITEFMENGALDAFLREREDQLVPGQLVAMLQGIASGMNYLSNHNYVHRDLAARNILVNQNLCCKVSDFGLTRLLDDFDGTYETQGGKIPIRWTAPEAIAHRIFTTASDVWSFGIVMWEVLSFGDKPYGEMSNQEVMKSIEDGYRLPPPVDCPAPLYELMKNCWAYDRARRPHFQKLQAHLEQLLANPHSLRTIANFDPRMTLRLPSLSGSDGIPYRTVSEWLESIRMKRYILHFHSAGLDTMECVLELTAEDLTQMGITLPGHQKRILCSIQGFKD

PIK3CA(H1047Y) = target: T7, PIK3CA(H1047Y) (Homo sapiens, UniProt P42336, H1047Y)
T7 construct: purchased Eurofins DiscoverX KINOMEscan

TNK2 = target: T8, TNK2 (Homo sapiens, UniProt Q07912)
T8 construct: purchased Eurofins DiscoverX KINOMEscan

PRP4 = target: T9, PRP4 (Homo sapiens, UniProt Q13523)
T9 construct: purchased Eurofins DiscoverX KINOMEscan
T9 sequence (Q13523 whole entry): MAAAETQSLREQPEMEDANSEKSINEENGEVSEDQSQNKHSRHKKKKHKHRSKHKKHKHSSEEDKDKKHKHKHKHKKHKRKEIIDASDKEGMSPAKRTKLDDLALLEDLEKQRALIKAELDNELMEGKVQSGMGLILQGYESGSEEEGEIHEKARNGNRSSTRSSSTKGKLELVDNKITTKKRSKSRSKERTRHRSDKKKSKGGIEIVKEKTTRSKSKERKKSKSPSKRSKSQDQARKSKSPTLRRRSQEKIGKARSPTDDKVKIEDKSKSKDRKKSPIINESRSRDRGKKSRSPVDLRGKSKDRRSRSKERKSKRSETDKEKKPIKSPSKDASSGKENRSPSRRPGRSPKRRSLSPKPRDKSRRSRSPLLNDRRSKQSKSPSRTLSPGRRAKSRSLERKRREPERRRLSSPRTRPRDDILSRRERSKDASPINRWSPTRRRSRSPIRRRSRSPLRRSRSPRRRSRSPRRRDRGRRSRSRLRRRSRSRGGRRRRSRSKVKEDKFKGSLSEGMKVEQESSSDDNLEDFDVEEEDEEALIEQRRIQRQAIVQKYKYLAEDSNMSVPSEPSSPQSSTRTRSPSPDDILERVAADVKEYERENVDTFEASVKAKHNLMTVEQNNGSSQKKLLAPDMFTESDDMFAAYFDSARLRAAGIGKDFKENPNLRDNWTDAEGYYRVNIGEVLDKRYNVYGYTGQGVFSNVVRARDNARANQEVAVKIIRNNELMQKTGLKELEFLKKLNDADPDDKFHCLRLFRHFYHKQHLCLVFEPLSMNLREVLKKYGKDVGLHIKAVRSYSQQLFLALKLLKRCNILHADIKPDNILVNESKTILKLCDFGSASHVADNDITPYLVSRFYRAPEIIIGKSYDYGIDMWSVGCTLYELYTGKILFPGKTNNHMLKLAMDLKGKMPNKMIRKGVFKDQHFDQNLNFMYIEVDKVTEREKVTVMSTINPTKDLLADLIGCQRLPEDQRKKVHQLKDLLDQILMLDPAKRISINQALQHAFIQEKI

FRK = target: T10, FRK (Homo sapiens, UniProt P42685)
T10 construct: purchased Eurofins DiscoverX KINOMEscan
T10 sequence (P42685 whole entry): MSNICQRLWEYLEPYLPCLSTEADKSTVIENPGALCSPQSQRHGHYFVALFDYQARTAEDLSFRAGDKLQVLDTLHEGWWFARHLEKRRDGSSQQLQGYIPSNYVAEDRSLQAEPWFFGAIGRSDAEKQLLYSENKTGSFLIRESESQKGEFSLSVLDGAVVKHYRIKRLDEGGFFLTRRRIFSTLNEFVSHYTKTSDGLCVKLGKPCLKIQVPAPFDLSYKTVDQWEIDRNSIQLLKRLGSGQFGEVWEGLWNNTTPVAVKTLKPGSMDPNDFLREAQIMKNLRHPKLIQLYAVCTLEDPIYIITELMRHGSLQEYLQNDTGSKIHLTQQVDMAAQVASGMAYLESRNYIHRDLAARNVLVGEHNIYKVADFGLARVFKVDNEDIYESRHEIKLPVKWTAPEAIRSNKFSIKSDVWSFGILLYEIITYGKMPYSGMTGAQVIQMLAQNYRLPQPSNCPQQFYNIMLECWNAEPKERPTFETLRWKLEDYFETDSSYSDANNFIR

MAST1 = target: T11, MAST1 (Homo sapiens, UniProt Q9Y2H9)
T11 construct: purchased Eurofins DiscoverX KINOMEscan
T11 sequence (Q9Y2H9 whole entry): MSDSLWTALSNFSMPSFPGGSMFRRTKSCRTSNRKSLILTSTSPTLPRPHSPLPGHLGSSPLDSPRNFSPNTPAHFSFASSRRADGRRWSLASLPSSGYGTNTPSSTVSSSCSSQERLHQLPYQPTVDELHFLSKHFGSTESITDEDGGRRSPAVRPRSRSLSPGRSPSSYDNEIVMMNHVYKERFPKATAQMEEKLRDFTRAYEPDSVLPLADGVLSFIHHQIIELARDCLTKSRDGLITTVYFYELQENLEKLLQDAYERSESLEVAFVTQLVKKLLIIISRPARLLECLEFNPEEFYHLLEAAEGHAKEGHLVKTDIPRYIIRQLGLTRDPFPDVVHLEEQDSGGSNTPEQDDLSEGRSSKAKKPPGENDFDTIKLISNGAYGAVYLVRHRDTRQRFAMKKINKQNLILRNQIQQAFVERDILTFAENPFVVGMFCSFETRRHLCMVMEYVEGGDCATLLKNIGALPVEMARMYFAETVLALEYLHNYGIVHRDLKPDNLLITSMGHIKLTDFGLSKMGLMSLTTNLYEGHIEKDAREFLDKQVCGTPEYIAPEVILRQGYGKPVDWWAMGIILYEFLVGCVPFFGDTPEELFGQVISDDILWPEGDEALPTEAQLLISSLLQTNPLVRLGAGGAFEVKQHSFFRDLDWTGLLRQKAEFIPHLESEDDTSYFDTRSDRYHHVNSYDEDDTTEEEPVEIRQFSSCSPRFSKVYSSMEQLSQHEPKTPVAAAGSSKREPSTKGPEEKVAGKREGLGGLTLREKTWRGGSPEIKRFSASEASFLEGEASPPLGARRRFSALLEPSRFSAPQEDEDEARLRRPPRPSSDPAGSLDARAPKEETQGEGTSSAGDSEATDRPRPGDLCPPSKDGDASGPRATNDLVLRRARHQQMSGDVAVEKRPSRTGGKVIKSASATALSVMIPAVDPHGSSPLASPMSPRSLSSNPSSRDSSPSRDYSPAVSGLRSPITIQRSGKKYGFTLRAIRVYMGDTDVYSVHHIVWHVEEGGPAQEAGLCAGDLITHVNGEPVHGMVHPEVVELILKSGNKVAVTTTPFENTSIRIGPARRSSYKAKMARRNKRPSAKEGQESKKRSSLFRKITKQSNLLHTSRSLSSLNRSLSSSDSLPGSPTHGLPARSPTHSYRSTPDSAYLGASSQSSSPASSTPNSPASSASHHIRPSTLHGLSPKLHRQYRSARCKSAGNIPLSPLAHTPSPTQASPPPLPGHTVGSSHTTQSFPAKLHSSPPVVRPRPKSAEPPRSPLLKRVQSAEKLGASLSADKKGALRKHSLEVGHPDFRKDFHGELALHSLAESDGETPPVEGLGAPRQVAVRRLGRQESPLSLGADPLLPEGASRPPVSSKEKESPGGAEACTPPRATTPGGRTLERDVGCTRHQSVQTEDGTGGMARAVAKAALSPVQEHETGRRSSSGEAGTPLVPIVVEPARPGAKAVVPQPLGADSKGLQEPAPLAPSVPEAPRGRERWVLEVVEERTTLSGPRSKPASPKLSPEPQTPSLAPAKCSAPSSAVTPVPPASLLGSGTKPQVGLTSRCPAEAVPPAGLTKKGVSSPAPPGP

CAMK4 = target: T12, CAMK4 (Homo sapiens, UniProt Q16566)
T12 construct: purchased Eurofins DiscoverX KINOMEscan

[2] = target: T13, JAK3(JH1domain-catalytic) (Homo sapiens, UniProt P52333)
T13 construct: JAK3(JH1domain-catalytic); purchased Eurofins DiscoverX KINOMEscan
T13 sequence (P52333 822-1124 limits assumed): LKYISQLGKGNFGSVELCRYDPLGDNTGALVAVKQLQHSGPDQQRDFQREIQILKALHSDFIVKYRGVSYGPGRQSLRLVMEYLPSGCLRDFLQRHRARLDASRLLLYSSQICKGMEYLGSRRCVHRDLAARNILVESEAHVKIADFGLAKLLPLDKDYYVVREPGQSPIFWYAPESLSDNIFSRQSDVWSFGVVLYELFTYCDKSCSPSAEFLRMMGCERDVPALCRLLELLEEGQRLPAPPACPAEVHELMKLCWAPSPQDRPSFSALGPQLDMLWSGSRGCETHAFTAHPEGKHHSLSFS

T2 sequence (O60674 849-1132 limits assumed): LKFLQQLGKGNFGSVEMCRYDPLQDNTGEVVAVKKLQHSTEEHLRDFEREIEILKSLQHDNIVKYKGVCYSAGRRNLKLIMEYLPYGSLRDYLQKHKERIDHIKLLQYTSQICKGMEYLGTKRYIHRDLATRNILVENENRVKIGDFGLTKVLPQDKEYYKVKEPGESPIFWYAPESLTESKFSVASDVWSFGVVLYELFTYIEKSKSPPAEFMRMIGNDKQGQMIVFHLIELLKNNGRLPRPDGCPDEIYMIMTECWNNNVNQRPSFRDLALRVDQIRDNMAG

SMILES: Clc1cc(NCC2CC2)c2ncc(-c3ccc4[nH]ncc4c3)n2n1 [compound 2, 6-Chloro-N-(cyclopropylmethyl)-3-(1H-indazol-5-yl)imidazo[1,2-b]pyridazin-8-amine]
- remaining binding at 1 µM (TRKC): 87%
- remaining binding at 1 µM [1]: 91%
- remaining binding at 1 µM (STK36): 91%
- remaining binding at 1 µM (AAK1): 39%
- remaining binding at 1 µM (ABL2): 100%
- remaining binding at 1 µM (EPHA1): 80%
- remaining binding at 1 µM (PIK3CA(H1047Y)): 89%
- remaining binding at 1 µM (TNK2): 86%
- remaining binding at 1 µM (PRP4): 60%
- remaining binding at 1 µM (FRK): 90%
- remaining binding at 1 µM (MAST1): 91%
- remaining binding at 1 µM (CAMK4): 100%
- remaining binding at 1 µM [2]: 100%

SMILES: O=C(CN1CCOCC1)N[C@H]1CC[C@H](Nc2cc(Cl)nn3c(-c4ccc5[nH]ncc5c4)cnc23)CC1 [compound 26]
- remaining binding at 1 µM (TRKC): 100%
- remaining binding at 1 µM [1]: 99%
- remaining binding at 1 µM (STK36): 95%
- remaining binding at 1 µM (AAK1): 28%
- remaining binding at 1 µM (ABL2): 56%
- remaining binding at 1 µM (EPHA1): 84%
- remaining binding at 1 µM (PIK3CA(H1047Y)): 82%
- remaining binding at 1 µM (TNK2): 93%
- remaining binding at 1 µM (PRP4): 97%
- remaining binding at 1 µM (FRK): 96%
- remaining binding at 1 µM (MAST1): 73%
- remaining binding at 1 µM (CAMK4): 100%
- remaining binding at 1 µM [2]: 100%

SMILES: CN1CCC(CNc2cc(Cl)nn3c(-c4cc5nc(Nc6ccccc6)[nH]c5cc4F)cnc23)CC1 [compound 31, 6-Chloro-3-(6-fluoro-2-(phenylamino)-1H-benzo[d]imidazol-5-yl)-N-((1-methylpiperidin-4-yl)methyl)imidazo[1,2-b]pyridazin-8-amine]
- remaining binding at 1 µM (TRKC): 100%
- remaining binding at 1 µM [1]: 100%
- remaining binding at 1 µM (STK36): 93%
- remaining binding at 1 µM (AAK1): 100%
- remaining binding at 1 µM (ABL2): 92%
- remaining binding at 1 µM (EPHA1): 99%
- remaining binding at 1 µM (PIK3CA(H1047Y)): 100%
- remaining binding at 1 µM (TNK2): 100%
- remaining binding at 1 µM (PRP4): 93%
- remaining binding at 1 µM (FRK): 92%
- remaining binding at 1 µM (MAST1): 63%
- remaining binding at 1 µM (CAMK4): 100%
- remaining binding at 1 µM [2]: 82%
